# Literature values in PubChem BioAssay AID1259409 (Chemical Carcinogenesis Research Information System (CCRIS), 2018).
# System: rodent chemically induced tumor inhibition, incidence and multiplicity
# Assay: CCRIS tumor inhibitor studies
compound,measurement,setting,value
COc1ccc2c(c1)c(CC(=O)O)c(C)n2C(=O)c1ccc(Cl)cc1,"tumour outcome (control, treated, inhibition, significance)","Carcinogen: METHYLAZOXYMETHANOL, 590-96-5, Dose [Inhibitor]: 7.5 MG/KG BW DAILY FOR 3 WK STARTING 27 WK AFTER THE START OF CARCINOGEN TREATMENT (STUDY DURATION: 30 WK), Route [Inhibitor]: INTRARECTAL, Species: RAT, Strain/Sex: DONRYU/MALE, Target Tissue: Type of Lesion: SMALL INTESTINE: ADENOCARCINOMA, Dose [Carcinogen]: 20 MG/KG BW 1/WK FOR 6 WK, Promoter: NONE USED","10/23 (43%), 4/30 (13%), 70%, p<0.05"
same,"tumour outcome (control, treated, inhibition, significance)","Carcinogen: N,N-DIETHYLNITROSAMINE, 55-18-5, Dose [Inhibitor]: 0.016 MG/ML IN DRINKING WATER 3/WK FOR 4 MO STARTING 4 MO AFTER THE START OF CARCINOGEN TREATMENT AND CONTINUING FOR DUR, Route [Inhibitor]: ORAL, Species: MOUSE, Strain/Sex: C57BL/MALE, Target Tissue: Type of Lesion: ESOPHAGUS: TUMOR, Dose [Carcinogen]: 0.04 ML/1000 ML DRINKING WATER DAILY FOR 30 D THEN EVERY SECOND WK TO COMPLETE 5 MO PERIOD, Promoter: NONE USED","16/16 (100%), 19/19 (100%), 0%, not significant"
same,"tumour outcome (control, treated, inhibition, significance)","Carcinogen: N,N-DIETHYLNITROSAMINE, 55-18-5, Dose [Inhibitor]: 0.016 MG/ML IN DRINKING WATER GIVEN TOGETHER WITH CARCINOGEN STARTING AT THE BEGINNING OF THE STUDY DAILY FOR 14 D AND 3, Route [Inhibitor]: ORAL, Species: MOUSE, Strain/Sex: C57BL/MALE, Target Tissue: Type of Lesion: ESOPHAGUS: TUMOR, Dose [Carcinogen]: 0.04 ML/1000 ML DRINKING WATER DAILY FOR 14 D THEN 3 D/WK FOR DURATION OF STUDY, Promoter: NONE USED","24/24 (100%), 45/45 (100%), 0%, not significant"
same,"tumour outcome (control, treated, inhibition, significance)","Carcinogen: N,N-DIETHYLNITROSAMINE, 55-18-5, Dose [Inhibitor]: 0.016 MG/ML IN DRINKING WATER GIVEN TOGETHER WITH CARCINOGEN STARTING AT THE BEGINNING OF THE STUDY DAILY FOR 30 D THEN, Route [Inhibitor]: ORAL, Species: MOUSE, Strain/Sex: C57BL/MALE, Target Tissue: Type of Lesion: ESOPHAGUS: TUMOR, Dose [Carcinogen]: 0.04 ML/1000 ML DRINKING WATER GIVEN TOGETHER WITH AGENT, Promoter: NONE USED","8/8 (100%), 16/16 (100%), 0%, not significant"
same,"tumour outcome (control, treated, inhibition, significance)","Carcinogen: N-BUTYL-N-(4-HYDROXYBUTYL)NITROSAMINE, 3817-11-6, Dose [Inhibitor]: 0, 7.5 MG/KG DIET BEGINNING 1 WK PRIOR TO CARCINOGEN TREATMENT AND CONTINUING FOR DURATION OF STUDY (STUDY DURATION: 187, Route [Inhibitor]: ORAL, Species: MOUSE, Strain/Sex: BDF/MALE, Target Tissue: Type of Lesion: URINARY BLADDER: TUMOR, Dose [Carcinogen]: 7.5 MG IN 0.1 ML OF ETHANOL:WATER (20:80) 1/WK FOR 8 WK, Promoter: NONE USED","24%, 5%, 79%, p<0.05"
same,"tumour outcome (control, treated, inhibition, significance)","Carcinogen: N-BUTYL-N-(4-HYDROXYBUTYL)NITROSAMINE, 3817-11-6, Dose [Inhibitor]: 0, 15 MG/KG DIET BEGINNING 1 WK PRIOR TO CARCINOGEN TREATMENT AND CONTINUING FOR DURATION OF STUDY (STUDY DURATION: 187, Route [Inhibitor]: ORAL, Species: MOUSE, Strain/Sex: BDF/MALE, Target Tissue: Type of Lesion: URINARY BLADDER: TUMOR, Dose [Carcinogen]: 7.5 MG IN 0.1 ML OF ETHANOL:WATER (20:80) 1/WK FOR 8 WK, Promoter: NONE USED","24%, 0%, 100%, p<0.01"
same,"tumour outcome (control, treated, inhibition, significance)","Carcinogen: N-BUTYL-N-(4-HYDROXYBUTYL)NITROSAMINE, 3817-11-6, Dose [Inhibitor]: 0, 20 PPM IN DRINKING WATER FOR 20 WK BEGINNING POST PROMOTER TREATMENT (STUDY DURATION: 44 WK), Route [Inhibitor]: ORAL, Species: RAT, Strain/Sex: F344/MALE, Target Tissue: Type of Lesion: URINARY BLADDER: PAPILLOMA, Dose [Carcinogen]: 0.05% IN DRINKING WATER FOR 4 WK, Promoter: BUTYLATED HYDROXYANISOLE, 25013-16-5","6/15 (40%), 9/15 (60%), -50%, not significant"
same,"tumour outcome (control, treated, inhibition, significance)","Carcinogen: N-BUTYL-N-(4-HYDROXYBUTYL)NITROSAMINE, 3817-11-6, Dose [Inhibitor]: 0, 20 PPM IN DRINKING WATER FOR 20 WK BEGINNING POST PROMOTER TREATMENT (STUDY DURATION: 44 WK), Route [Inhibitor]: ORAL, Species: RAT, Strain/Sex: F344/MALE, Target Tissue: Type of Lesion: URINARY BLADDER: PAPILLOMA, Dose [Carcinogen]: 0.05% IN DRINKING WATER FOR 4 WK, Promoter: SODIUM L-ASCORBATE, 134-03-2","10/15 (67%), 10/15 (67%), 0%, not significant"
same,"tumour outcome (control, treated, inhibition, significance)","Carcinogen: N-BUTYL-N-(4-HYDROXYBUTYL)NITROSAMINE, 3817-11-6, Dose [Inhibitor]: 0, 20 PPM IN DRINKING WATER FOR 20 WK BEGINNING POST PROMOTER TREATMENT (STUDY DURATION: 44 WK), Route [Inhibitor]: ORAL, Species: RAT, Strain/Sex: F344/MALE, Target Tissue: Type of Lesion: URINARY BLADDER: TRANSITIONAL CELL CARCINOMA, Dose [Carcinogen]: 0.05% IN DRINKING WATER FOR 4 WK, Promoter: BUTYLATED HYDROXYANISOLE, 25013-16-5","3/15 (20%), 3/15 (20%), 0%, not significant"
same,"tumour outcome (control, treated, inhibition, significance)","Carcinogen: N-BUTYL-N-(4-HYDROXYBUTYL)NITROSAMINE, 3817-11-6, Dose [Inhibitor]: 0, 20 PPM IN DRINKING WATER FOR 20 WK BEGINNING POST PROMOTER TREATMENT (STUDY DURATION: 44 WK), Route [Inhibitor]: ORAL, Species: RAT, Strain/Sex: F344/MALE, Target Tissue: Type of Lesion: URINARY BLADDER: TRANSITIONAL CELL CARCINOMA, Dose [Carcinogen]: 0.05% IN DRINKING WATER FOR 4 WK, Promoter: SODIUM L-ASCORBATE, 134-03-2","6/15 (40%), 2/15 (13%), 67%, not significant"
